Assay results from the supplement of paper PMC11208160.

Test: recombinant barcode read abundance after kanamycin selection (control-corrected) (log10(CPM+1)); higher = more efficient recombination; sequences stand for … in AGTGCAGAGAAAATCGGCCAGTTTTCTCTGCCTGCAGTCCGCATGCCGT…AGATTTATGCAGCGGACTGCCTTTCTCCCAAAGTGATAAACCGGACAGTATCATGGACCGGTTTTCCCGGTAATCCGTATTTGCAAGGTTGGTTTCACT; site = the 11-nt target
Procedure, shortened: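 Recombination efficiency draws on barcodes counted at recombinant junctions in a pooled E. coli screen of targets paired with IS621 bridge RNA target-binding loops. The counts were converted to counts per million, averaged and corrected against the chloramphenicol/ampicillin LB agar control, then reported as log10(CPM+1). Selection plates held chloramphenicol/ampicillin/kanamycin with 0.1 mM IPTG, with two replicates per condition.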
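Note: IS621 recombinase and bridge RNA in Escherichia coli cells.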

Compared with “CGGCTTCCTTGGGTTCTAACCTGTTGCGT (site CGGCTTCCTAC)”, “AGATGTACTTGGGTTCTAACCTGTTGCTG (site AGATGTACTCA)” is lower in “recombinant barcode read abundance (log10)” value: 1.24 for the first, 0.958 for the second.

Going from “TATTTGCCTTGGGTTCTAACCTGTTGCCT (site TAGTTGCCTAG)” to “GCGGACTCTTGGGTTCTAACCTGTTGCCA (site GCGGACTCTTG)”, the “recombinant barcode read abundance (log10)” value rises from 0.408 to 2.09.

Going from “GGAGTGACTTGGGTTCTAACCTGTTGCTA (site GGAGTGACTTA)” to “TCGATTACTTGGGTTCTAACCTGTTGCCT (site TCGATTACTAG)”, the “recombinant barcode read abundance (log10)” value falls from 1.61 to 0.123.

“GCAGGGACTTGGGTTCTAACCTGTTGCCT (site GGAGGGACTAG)” and “CTAACTCCTTGGGTTCTAACCTGTTGCCT (site CTAACTCCTAG)” are within 0.2 log units of each other in “recombinant barcode read abundance (log10)” value: 0.313 for the first, 0.401 for the second.

Compared with “AGTACAACTTGGGTTCTAACCTGTTGCCT (site AGTACAACTAG)”, “GGGACCTCTTGGGTTCTAACCTGTTGCTC (site GGGACCTCTGA)” is higher in “recombinant barcode read abundance (log10)” value: 0.237 for the first, 1.24 for the second.

First: CGGACGTCTTGGGTTCTAACCTGTTGCCT (site CGGACGACTAG)
Second: GGGGCACCTTGGGTTCTAACCTGTTGCGT (site GGGGCACCTAT)
The “recombinant barcode read abundance (log10)” value of the first is lower: 0.12 for the first, 2.61 for the second.

“GAATGAGCTTGGGTTCTAACCTGTTGCCT (site CTCACGACTCT)” and “CGTAGAGCTTGGGTTCTAACCTGTTGCCT (site AGTAGAACTAG)” are within 0.2 log units of each other in “recombinant barcode read abundance (log10)” value: 0.014 for the first, 0.0247 for the second.

“GCTCAGGCTTGGGTTCTAACCTGTTGCCT (site GCTCAGACTAG)” and “TAAGGCCCTTGGGTTCTAACCTGTTGCTT (site TCAGGCCCTAG)” are within 0.2 log units of each other in “recombinant barcode read abundance (log10)” value: 0.142 for the first, 0.33 for the second.

Going from “CGGTGAACTTGGGTTCTAACCTGTTGCCT (site CGGTGAACTAG)” to “CACCAGACTTGGGTTCTAACCTGTTGCCA (site ACAATCTCTGA)”, the “recombinant barcode read abundance (log10)” value falls from 1.16 to 0.0296.

Going from “GCCCTATCTTGGGTTCTAACCTGTTGCCT (site GCCCTATCTAG)” to “TAGATTACTTGGGTTCTAACCTGTTGCCT (site TAAAATACTAG)”, the “recombinant barcode read abundance (log10)” value falls from 1.35 to 0.12.

Going from “GTCCTGTCTTGGGTTCTAACCTGTTGCCG (site GTCCTGTCTCG)” to “TCCGGAGCTTGGGTTCTAACCTGTTGCCG (site GTGAACCCTTT)”, the “recombinant barcode read abundance (log10)” value falls from 1.16 to 0.0406.

“ATAACAGCTTGGGTTCTAACCTGTTGCCT (site ATAAAAGCTAG)” and “CGTCAGACTTGGGTTCTAACCTGTTGCCT (site CGTGAGACTAG)” are within 0.2 log units of each other in “recombinant barcode read abundance (log10)” value: 0.224 for the first, 0.212 for the second.

“CCATGGTCTTGGGTTCTAACCTGTTGCTT (site CCATACTCTAA)” and “GTTTATACTTGGGTTCTAACCTGTTGCCT (site GTCTATACTAG)” are within 0.2 log units of each other in “recombinant barcode read abundance (log10)” value: 0.01 for the first, 0.091 for the second.

First: ACGATCGCTTGGGTTCTAACCTGTTGCCT (site ACGAACGCTAG)
Second: GTCCGAACTTGGGTTCTAACCTGTTGCCA (site GTCCGAACTTG)
The “recombinant barcode read abundance (log10)” value of the first is lower: 0.08 for the first, 0.428 for the second.

“CTAGCTCCTTGGGTTCTAACCTGTTGCTT (site CTAGCTCCTAA)” and “CTATTCTCTTGGGTTCTAACCTGTTGCCT (site CTATTCCCTAG)” are within 0.2 log units of each other in “recombinant barcode read abundance (log10)” value: 0.0882 for the first, 0.188 for the second.

“CGAGCTCCTTGGGTTCTAACCTGTTGCCT (site CGAGCTCCTAT)” and “CCAGTTACTTGGGTTCTAACCTGTTGCCT (site CCAGTCACTAG)” are within 0.2 log units of each other in “recombinant barcode read abundance (log10)” value: 0.157 for the first, 0.132 for the second.

First: CGCCTCGCTTGGGTTCTAACCTGTTGCCT (site CGCCTCACTAG)
Second: GGGCACTCTTGGGTTCTAACCTGTTGCTT (site GGGCACTCTAT)
The “recombinant barcode read abundance (log10)” value of the first is lower: 0.07 for the first, 1.54 for the second.

“CAGTACTCTTGGGTTCTAACCTGTTGCCT (site CAGTATTCTAG)” and “TGGCTGTCTTGGGTTCTAACCTGTTGCCT (site TGGTTGTCTAG)” are within 0.2 log units of each other in “recombinant barcode read abundance (log10)” value: 0.0289 for the first, 0.0561 for the second.

“TGCTCTACTTGGGTTCTAACCTGTTGCTT (site TGCTCTACTAA)” and “TAGCTTACTTGGGTTCTAACCTGTTGCCG (site TAACTTACTAG)” are within 0.2 log units of each other in “recombinant barcode read abundance (log10)” value: 0.0286 for the first, 0.114 for the second.

“TAGTCCGCTTGGGTTCTAACCTGTTGCGG (site TAGTCCGCTCC)” and “AGGTCTACTTGGGTTCTAACCTGTTGCAC (site GTCCTATCTTA)” are within 0.2 log units of each other in “recombinant barcode read abundance (log10)” value: 0.0626 for the first, 0.13 for the second.

“CCGTCTACTTGGGTTCTAACCTGTTGCTT (site CCGTCTACTTA)” and “GAGTGCTCTTGGGTTCTAACCTGTTGCGT (site GAGCGCTCTAG)” are within 0.2 log units of each other in “recombinant barcode read abundance (log10)” value: 0.201 for the first, 0.0262 for the second.

Compared with “CTCCGGCCTTGGGTTCTAACCTGTTGCTT (site CTCCGACCTAA)”, “CACATGCCTTGGGTTCTAACCTGTTGCTG (site TTGTACACTGG)” is lower in “recombinant barcode read abundance (log10)” value: 0.809 for the first, 0.0315 for the second.

“CTTTGGCCTTGGGTTCTAACCTGTTGCTT (site CTTTGGCCTAA)” and “TCATATACTTGGGTTCTAACCTGTTGCCT (site ACATTTACTAG)” are within 0.2 log units of each other in “recombinant barcode read abundance (log10)” value: 0.0961 for the first, 0.238 for the second.

“CCAAGGGCTTGGGTTCTAACCTGTTGCCG (site CCAAGGGCTCC)” and “GGTCGGGCTTGGGTTCTAACCTGTTGCCT (site GGTCGAGCTAG)” are within 0.2 log units of each other in “recombinant barcode read abundance (log10)” value: 0.211 for the first, 0.132 for the second.

“ATCGTACCTTGGGTTCTAACCTGTTGCTA (site ATCGTACCTTA)” and “CTACACACTTGGGTTCTAACCTGTTGCTA (site CTACACACTGA)” are within 0.2 log units of each other in “recombinant barcode read abundance (log10)” value: 0.0937 for the first, 0.00924 for the second.

Compared with “TAATGACCTTGGGTTCTAACCTGTTGCTT (site TAATGACCTAA)”, “CGGCTGCCTTGGGTTCTAACCTGTTGCGG (site CGGCTGCCTCC)” is higher in “recombinant barcode read abundance (log10)” value: 0.816 for the first, 2.57 for the second.

“AGGTATGCTTGGGTTCTAACCTGTTGCCT (site AGGTTTGCTAG)” and “TGTCGCTCTTGGGTTCTAACCTGTTGCCT (site TGGCGCTCTAG)” are within 0.2 log units of each other in “recombinant barcode read abundance (log10)” value: 0.248 for the first, 0.129 for the second.

Going from “GCAGAGTCTTGGGTTCTAACCTGTTGCCT (site GTAGAGTCTAG)” to “AGGCGCCCTTGGGTTCTAACCTGTTGCAG (site AGGCGCCCTAT)”, the “recombinant barcode read abundance (log10)” value falls from 1.06 to 0.185.

Going from “ACGTCCACTTGGGTTCTAACCTGTTGCCT (site CCGTCGACTAG)” to “TAGGGAGCTTGGGTTCTAACCTGTTGCAT (site TAGGGAGCTAT)”, the “recombinant barcode read abundance (log10)” value rises from 0.317 to 2.8.

First: TAGAACACTTGGGTTCTAACCTGTTGCTG (site TAGAACACTAA)
Second: TAGACGACTTGGGTTCTAACCTGTTGCAC (site TAGACGACTGT)
The “recombinant barcode read abundance (log10)” value of the first is lower: 0.106 for the first, 1.57 for the second.

“ACGGGATCTTGGGTTCTAACCTGTTGCCT (site CCGGGATCTAG)” and “GAGTGGCCTTGGGTTCTAACCTGTTGCCT (site GAGTGGCCTAT)” are within 0.2 log units of each other in “recombinant barcode read abundance (log10)” value: 0.24 for the first, 0.182 for the second.

Going from “TGGAACACTTGGGTTCTAACCTGTTGCCT (site TGGACCACTAG)” to “AGGAAGACTTGGGTTCTAACCTGTTGCGG (site AGGAAGACTCG)”, the “recombinant barcode read abundance (log10)” value rises from 0.0483 to 0.25.

“CTATCGCCTTGGGTTCTAACCTGTTGCCT (site CTTTCGCCTAG)” and “GTATGAACTTGGGTTCTAACCTGTTGCCT (site GTATGACCTAG)” are within 0.2 log units of each other in “recombinant barcode read abundance (log10)” value: 0.0941 for the first, 0.121 for the second.

“ATATTGTCTTGGGTTCTAACCTGTTGCCA (site ATATTGTCTTG)” and “TTGATTGCTTGGGTTCTAACCTGTTGCCT (site TTGATTGCTAG)” are within 0.2 log units of each other in “recombinant barcode read abundance (log10)” value: 0.611 for the first, 0.497 for the second.

“GGGATACCTTGGGTTCTAACCTGTTGCCT (site GCGTTACCTAG)” and “AGCCCTCCTTGGGTTCTAACCTGTTGCAT (site AGCGCTCCTAC)” are within 0.2 log units of each other in “recombinant barcode read abundance (log10)” value: 0.0414 for the first, 0.0462 for the second.

Going from “TTAAGTCCTTGGGTTCTAACCTGTTGCAT (site TTAGGTCCTAA)” to “GGTCCAACTTGGGTTCTAACCTGTTGCCT (site GGTCCAACTAG)”, the “recombinant barcode read abundance (log10)” value rises from 0.0454 to 0.32.

Going from “GATAGCTCTTGGGTTCTAACCTGTTGCCT (site TATAGCTCTAG)” to “AGATGGCCTTGGGTTCTAACCTGTTGCAT (site AGATGGCCTAT)”, the “recombinant barcode read abundance (log10)” value rises from 0.509 to 0.991.

First: CGCCATCCTTGGGTTCTAACCTGTTGCAT (site CGCCGTCCTAT)
Second: GCAAGGACTTGGGTTCTAACCTGTTGCAG (site GCAAGGACTCT)
The “recombinant barcode read abundance (log10)” value of the first is lower: 0.0349 for the first, 2.6 for the second.

First: CTGATAACTTGGGTTCTAACCTGTTGCCT (site CTGATAACTAG)
Second: GAGACTCCTTGGGTTCTAACCTGTTGCAC (site GAGACTCCTCT)
The “recombinant barcode read abundance (log10)” value of the first is higher: 1.02 for the first, 0.437 for the second.

First: TCCGAAGCTTGGGTTCTAACCTGTTGCTA (site TCCAAAGCTTA)
Second: CGACCCTCTTGGGTTCTAACCTGTTGCTT (site CGACCCTCTAA)
The “recombinant barcode read abundance (log10)” value of the first is lower: 0.0181 for the first, 1.39 for the second.

First: CCAGTTACTTGGGTTCTAACCTGTTGCCT (site CCAGTTACTAG)
Second: CACTCTCCTTGGGTTCTAACCTGTTGCAT (site CACTCTCCTAT)
The “recombinant barcode read abundance (log10)” value of the first is lower: 0.351 for the first, 0.728 for the second.

“CCACTTCCTTGGGTTCTAACCTGTTGCCT (site CCACTTCCTAG)” and “CCGGCCACTTGGGTTCTAACCTGTTGCCT (site CGGGCCACTAG)” are within 0.2 log units of each other in “recombinant barcode read abundance (log10)” value: 0.0928 for the first, 0.164 for the second.

Compared with “ACCAAGACTTGGGTTCTAACCTGTTGCCG (site TCCAAGACTCT)”, “GGGCACTCTTGGGTTCTAACCTGTTGCTT (site GGGCACTCTAC)” is higher in “recombinant barcode read abundance (log10)” value: 0.00901 for the first, 0.503 for the second.
